Assay results from the supplement of paper PMC10307832.

Tests used:
Test in all cases: relative viability (nuclei count vs DMSO), 5 days (fraction); higher = more cells survive
BI-2536 + AZD7762 = compound: CC[C@@H]1C(=O)N(C)c2cnc(Nc3ccc(C(=O)NC4CCN(C)CC4)cc3OC)nc2N1C1CCCC1 [BI-2536] + NC(=O)Nc1cc(-c2cccc(F)c2)sc1C(=O)N[C@H]1CCCNC1 [AZD7762] (partner 0.2 µM)
In short: (§1)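 Lung cancer cell lines in 1536-well plates were dosed by pin tool the day after seeding, either with one drug alone or with a fixed anchor-drug dose plus five library-drug doses (not always all listed) in √10 steps. After 5 days, cells were fixed and their nuclei stained in one step (final 0.05% Triton X-100, 1% formaldehyde, 1 ug/ml Hoechst), then counted on 4× images. Relative viability is the nuclei count in treated wells divided by that in vehicle wells. Values are medians of duplicate plates.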

[1] = compound: CC1CC(=O)N(C2=CN=C(N=C2N1C3CCCC3)NC4=C(C=C(C=C4)C(=O)NC5CCN(CC5)C)OC)C [NPK76-II-72-1] + CS(=O)(=O)N1CCN(Cc2cc3nc(-c4cccc5[nH]ncc45)nc(N4CCOCC4)c3s2)CC1 [Pictilisib] (partner 1 µM)
In short: as §1

[2] = compound: CC1CC(=O)N(C2=CN=C(N=C2N1C3CCCC3)NC4=C(C=C(C=C4)C(=O)NC5CCN(CC5)C)OC)C [NPK76-II-72-1] + Nc1ncn([C@H]2C[C@H](O)[C@@H](CO)O2)c(=O)n1 [Decitabine] (partner 2 µM)
In short: as §1

BI-2536 + Trametinib = compound: CC[C@@H]1C(=O)N(C)c2cnc(Nc3ccc(C(=O)NC4CCN(C)CC4)cc3OC)nc2N1C1CCCC1 [BI-2536] + CC(=O)Nc1cccc(-n2c(=O)n(C3CC3)c(=O)c3c(Nc4ccc(I)cc4F)n(C)c(=O)c(C)c32)c1 [Trametinib] (partner 0.02 µM)
In short: as §1

Cell Line	relative viability (BI-2536 + AZD7762; first compound 0.01 µM)	relative viability (BI-2536 + AZD7762; first compound 0.03162 µM)	relative viability (BI-2536 + AZD7762; first compound 0.1 µM)	relative viability (BI-2536 + AZD7762; first compound 0.3162 µM)	relative viability (BI-2536 + AZD7762; first compound 1 µM)	relative viability ([1]; first compound 0.01 µM)	relative viability ([1]; first compound 0.03162 µM)	relative viability ([1]; first compound 0.1 µM)	relative viability ([1]; first compound 0.3162 µM)	relative viability ([1]; first compound 1 µM)	relative viability ([2]; first compound 0.03162 µM)	relative viability ([2]; first compound 0.1 µM)	relative viability ([2]; first compound 0.3162 µM)	relative viability ([2]; first compound 1 µM)	relative viability (BI-2536 + Trametinib; first compound 0.01 µM)	relative viability (BI-2536 + Trametinib; first compound 0.03162 µM)	relative viability (BI-2536 + Trametinib; first compound 0.1 µM)	relative viability (BI-2536 + Trametinib; first compound 0.3162 µM)	relative viability (BI-2536 + Trametinib; first compound 1 µM)	relative viability ([2]; first compound 0.01 µM)
LCLC-103H	0.804	0.826	0.605	0.244	0.169	0.692	0.761	0.671	0.609	0.679	0.786	0.694	0.761	0.716	0.671	0.711	0.69	0.336	0.277	
LK-2	0.463	0.5	0.121	0.0816	0.091	0.582	0.567	0.636		0.582	0.246	0.265	0.201	0.407	0.787	0.752	0.746	0.173	0.181	0.379
LOU-NH91	0.722	0.76	0.42	0.316	0.329	0.501	0.507	0.46	0.502	0.597	0.849	0.793	0.735	0.875	0.798	0.736	0.682	0.332	0.33	0.794
LU99A	0.309	0.334	0.111	0.145	0.102	0.371	0.32	0.411	0.292	0.334	0.833	0.75	0.928	0.916	0.525	0.647	0.562	0.196	0.192	0.897
LXF-289	1	1.14	0.61	0.0819	0.083	0.791	0.819	0.796	0.772	0.776	0.374	0.364	0.383	0.357	0.68	0.654	0.64	0.12	0.102	0.345
NCI-H23	0.236	0.236	0.127	0.12	0.088	0.389	0.48		0.503	0.534	0.315	0.264	0.405	0.306	0.372	0.464	0.201	0.112	0.14	0.31
NCI-H322M	0.61	0.53	0.496	0.394	0.406	0.45	0.573	0.513	0.576	0.513	0.711	0.714	0.743	0.77	0.535	0.473	0.564	0.435	0.361	0.675
NCI-H358	0.64	0.408	0.266	0.153	0.177	0.352	0.364	0.334	0.3	0.332	0.215	0.222		0.214	0.146	0.126	0.11	0.0815	0.0734	0.193
NCI-H441	0.977	1.21	0.228	0.174	0.21	0.419	0.507	0.605	0.471	0.425	0.222	0.233	0.222	0.252	0.517	0.29	0.158	0.154	0.162	0.226
NCI-H460	0.724	0.649	0.473	0.0346	0.0318	0.238	0.297	0.367	0.34	0.365	0.492	0.521	0.455	0.47	0.205	0.154	0.0447	0.0185	0.0133	0.432
NCI-H596	1.1	1.14	1.11	0.342	0.403	0.401	0.338	0.396	0.368	0.429	1.19	1.01	1	1.01	0.758	0.798	0.721	0.414	0.256	1.02
NCI-H647	0.542	0.308	0.257	0.0341	0.0503	0.38	0.427	0.401	0.406	0.466	0.364	0.418	0.367	0.454	0.482	0.458	0.213	0.087	0.0808	0.379
NCI-H650	0.944	1.4	0.541	0.201	0.138	0.804	0.88	0.71		1.21	0.33	0.358	0.311	0.299	0.847	0.956	0.858	0.152	0.16	0.316
NCI-H727	0.479	0.8	0.664	0.406	0.314	0.396	0.428	0.385	0.418	0.319	0.888	0.801	0.785	0.764	0.366	0.364	0.379	0.362	0.332	0.874
NCI-H838	0.905	0.803	0.831	0.634	0.634	0.37	0.481	0.47	0.435	0.432	0.458	0.455	0.466	0.476	0.532	0.625	0.478	0.081	0.0789	0.495
NCI-H1355	0.697	0.776	0.751	0.269	0.185	0.409	0.391	0.432	0.434	0.442	0.359	0.338	0.315	0.344	0.428	0.47	0.46	0.176	0.174	0.349

Cell Line	relative viability (BI-2536 + AZD7762; first compound 0.01 µM)	relative viability (BI-2536 + AZD7762; first compound 0.03162 µM)	relative viability (BI-2536 + AZD7762; first compound 0.1 µM)	relative viability (BI-2536 + AZD7762; first compound 0.3162 µM)	relative viability (BI-2536 + AZD7762; first compound 1 µM)	relative viability ([1]; first compound 0.01 µM)	relative viability ([1]; first compound 0.03162 µM)	relative viability ([1]; first compound 0.1 µM)	relative viability ([1]; first compound 0.3162 µM)	relative viability ([1]; first compound 1 µM)	relative viability ([2]; first compound 0.03162 µM)	relative viability ([2]; first compound 0.1 µM)	relative viability ([2]; first compound 0.3162 µM)	relative viability ([2]; first compound 1 µM)	relative viability (BI-2536 + Trametinib; first compound 0.01 µM)	relative viability (BI-2536 + Trametinib; first compound 0.03162 µM)	relative viability (BI-2536 + Trametinib; first compound 0.1 µM)	relative viability (BI-2536 + Trametinib; first compound 0.3162 µM)	relative viability (BI-2536 + Trametinib; first compound 1 µM)	relative viability ([2]; first compound 0.01 µM)
NCI-H1395	0.382	0.348	0.319	0.351	0.325	0.615	0.645	0.627	0.632	0.628	0.619	0.628	0.693	0.753	1.06	0.635	0.611	0.353	0.369	0.758
NCI-H1437	1.01	0.892	1.03	0.141	0.163	0.479	0.441	0.451	0.427	0.477	0.523	0.531	0.558	0.641	0.636	0.483	0.428	0.149	0.177	0.579
NCI-H1651	0.476	0.543	0.392	0.261	0.0882	0.432	0.548	0.703	0.557	0.592	0.645	0.606	0.589	0.604	0.786	0.868	0.789	0.518	0.123	0.611
NCI-H1666	0.803	0.851	0.827	0.411	0.368	0.305	0.55	0.35	0.381	0.469	0.755	0.705	0.713	0.733	0.919	0.914	0.865	0.49	0.512	0.809
NCI-H1734	0.461	0.596	0.16	0.134	0.142	0.427	0.478	0.383	0.411	0.446	0.456	0.479	0.479	0.525	0.723	0.638	0.593	0.173	0.165	0.49
NCI-H1755	0.452	0.467	0.305	0.253	0.265	0.369	0.462	0.397	0.432	0.422	0.712	0.75	0.735	0.694	0.78	0.784	0.689	0.367	0.363	0.738
NCI-H1792	0.704	0.692	0.415	0.0392	0.0281	0.353	0.285	0.26	0.29	0.286	0.683	0.42	0.534	0.515	0.604	0.417	0.395	0.0597	0.0491	
NCI-H1793	0.45	0.519	0.102	0.128	0.123	0.309	0.472	0.483	0.332	0.257	0.542	0.547	0.409	0.575	0.37	0.435	0.251	0.177	0.183	
NCI-H1915	0.641	0.696	0.535	0.195	0.109	0.988	1.08	0.91	0.846	0.902	0.257	0.27	0.261	0.278	0.29	0.332	0.317	0.0844	0.0806	0.256
NCI-H1944	0.476	0.611	0.269	0.12	0.13	0.351	0.352	0.318	0.338	0.35	0.463	0.408	0.408	0.478	0.392	0.427	0.439	0.144	0.186	0.431
NCI-H1975	0.726	0.568	0.639	0.236	0.177	0.267	0.278	0.28	0.279	0.277	0.375	0.398	0.364	0.391	0.252	0.363	0.295	0.12	0.122	0.351
NCI-H1993	0.734	0.668	0.407	0.53	0.348	0.811	0.804	0.779	0.88	0.759	0.624	0.61	0.474	0.678	0.448	0.404	0.56	0.379	0.398	0.604
NCI-H2085	1.03	0.963	0.737	0.217	0.27	0.494	0.385	0.494	0.398	0.507	0.519	0.517	0.472	0.611	0.523	0.52	0.439	0.144	0.177	0.543
NCI-H2087	1.26	1.45	1.23	0.111	0.114	0.895	0.838	0.895	0.722	1.04	0.33	0.3	0.217	0.36	0.18	0.183	0.147	0.0838	0.0815	0.226
NCI-H2126	1.01	1.09	0.855	0.428	0.223	0.508	0.517	0.457	0.507	0.476	0.554	0.569	0.516	0.538	0.622	0.597	0.517	0.234	0.228	0.57
NCI-H2170	0.854	0.83	0.184	0.146	0.2	0.281	0.357	0.279		0.333	0.447	0.455	0.42	0.511	0.945	0.916	0.775	0.137	0.176	0.442
